Measured values: patent publication US12304917B1, “Pleuromutilin derivative containing a thiazolo[5,4-c]pyridine side chain, and a preparation method and application thereof” (SHAANXI UNIVERSITY OF SCIENCE AND TECHNOLOGY, priority 2024, dated 2025)
≈ marks a conversion by molar mass, not a printed value. Like-named read-outs stand apart in the source and are kept apart here.

Legend:
A. baumannii ATCC 19606 = test: MIC by broth microdilution; conditions: Acinetobacter baumannii, ATCC19606, 24 h, read-out: Minimum inhibitory concentration A.b.^f
[1] = system: Methicillin-resistant S. epidermidis ATCC 51625; test: MIC by broth microdilution; conditions: Staphylococcus epidermidis, ATCC51625|MRSE, 24 h, read-out: Minimum inhibitory concentration MRSE^e
[2] = system: Methicillin-resistant S. aureus ATCC 33591; test: MIC by broth microdilution; conditions: Staphylococcus aureus, ATCC33591|MRSA, 24 h, read-out: Minimum inhibitory concentration MRSA^b
S. aureus ATCC 29213 = test: MIC by broth microdilution; conditions: Staphylococcus aureus, ATCC29213, 24 h, read-out: Minimum inhibitory concentration S.a.^d
[3] = Solubility experiment (equilibrium solubility); conditions: thermodynamic from solid
[4] = system: Methicillin-resistant S. aureus ATCC 43300; test: MIC by broth microdilution; conditions: Staphylococcus aureus, ATCC43300|MRSA, 24 h, read-out: Minimum inhibitory concentration MRSA^c
E. coli CMCC 44103 = test: MIC by broth microdilution; conditions: Escherichia coli, CMCC44103, 24 h, read-out: Minimum inhibitory concentration E.c.^i
E. coli ATCC 25922 = test: MIC by broth microdilution; conditions: Escherichia coli, ATCC25922, 24 h, read-out: Minimum inhibitory concentration E.c.^h
S. enterica ATCC14028 = test: MIC by broth microdilution; conditions: Salmonella enterica, ATCC14028, 24 h, read-out: Minimum inhibitory concentration S.e.^g
[5] = Cell Counting Kit-8 cytotoxicity; conditions: human
A549 cells [6] = test: Cell Counting Kit-8 cytotoxicity; conditions: read-out: CC50 A549 Cells; CCK-8, 24 hours incubation
[7] = system: methicillin-resistant Staphylococcus aureus-222; test: MIC against clinical isolate; assay type: cell-based; conditions: MRSA / MRSE
Source text: (§1) The Specific Steps are as Follows:

[8] = system: carbapenem-resistant Acinetobacter baumannii-882; test: MIC against clinical isolate; assay type: cell-based
Source text: as §1

[9] = system: multidrug-resistant Klebsiella pneumoniae-893; test: MIC against clinical isolate; assay type: cell-based; conditions: clinical isolate MDR-KP-893
Source text: as §1

[10] = system: methicillin-resistant Staphylococcus aureus-206; test: MIC against clinical isolate; assay type: cell-based
Source text: as §1

[11] = system: multidrug-resistant Pseudomonas aeruginosa-126; test: MIC against clinical isolate; assay type: cell-based
Source text: as §1

[12] = system: methicillin-resistant Staphylococcus aureus-575; test: MIC against clinical isolate; assay type: cell-based
Source text: as §1

[13] = system: vancomycin-resistant Enterococcus-80; test: MIC against clinical isolate; assay type: cell-based
Source text: as §1

[14] = system: methicillin-resistant Staphylococcus aureus-596; test: MIC against clinical isolate; assay type: cell-based
Source text: as §1

[15] = system: methicillin-resistant Staphylococcus aureus-171; test: MIC against clinical isolate; assay type: cell-based
Source text: as §1

HepG2 cells [16] = test: Cell Counting Kit-8 cytotoxicity; conditions: read-out: CC50 HepG2 Cells; CCK-8, 24 hours incubation
[17] = system: Gram-positive and Gram-negative bacteria; test: MIC, panel of TABLE 1 strains as summarised in text; conditions: comparison of MIC with positive control drugs
[18] = system: HepG2 cells, HEK293 cells and A549 cells; test: Cell Counting Kit-8 cytotoxicity, all tested cells as summarised in text; conditions: at a concentration of 100 μM
HEK293 cells [19] = test: Cell Counting Kit-8 cytotoxicity; conditions: read-out: CC50 HEK293 Cells; CCK-8, 24 hours incubation
[20] = Cell Counting Kit-8 cytotoxicity; conditions: human, HepG2 cells
physchem = conditions: thermodynamic from solid
[21] = system: five clinical MRSA isolates, including MRSA-171, MRSA-575, MRSA-206, MRSA-222, and MRSA-596; test: MIC, five clinical MRSA isolates as summarised in text; assay type: cell-based, Staphylococcus aureus; conditions: MRSA-171, MRSA-575, MRSA-206, MRSA-222, MRSA-596
Source text: as §1

HEK293 cells [22] = conditions: human, 24 h
HepG2 cells [23] = conditions: human, 24 h
A549 cells [24] = conditions: human, 24 h

SMILES	MIC (A. baumannii ATCC 19606) [mg/L]	MIC [1] [mg/L]	MIC [2] [mg/L]	MIC (S. aureus ATCC 29213) [mg/L]	MIC [4] [mg/L]	MIC (E. coli CMCC 44103) [mg/L]	MIC (E. coli ATCC 25922) [mg/L]	MIC (S. enterica ATCC14028) [mg/L]	CC50 (A549 cells [6]) [µM]	Antibacterial activity (MIC) MDR-KP^i [9] [mg/L]	antibacterial activity compared to valnemulin and retapamulin (in words) [17]	toxicity to the tested cells (in words) [18]	solubility (physchem) [µM]	other results
C=C[C@]1(C)C[C@@H](OC(=O)CSc2nc3cc[n+](Cc4ccc([N+](=O)[O-])cc4)cc3s2)[C@]2(C)[C@H](C)CC[C@]3(CCC(=O)[C@H]32)[C@@H](C)[C@@H]1O [Compound I-6, 5-(4-nitrobenzyl)-2-((2-(((3aR,4R,5R,7S,8S,9R,9aS,12R)-8-hydroxy-4,7,9,12-tetramethyl-3-oxo-7-vinyldecahydro-4,9a-propancyclopenta[8]cyclo-5-yl)oxy)-2-oxoethyl)thio)thiazolo[5,4-c]pyridin-5-ium]	16	16	16	32	4	32	8	16						solubility [3]: 887 µM
C=C[C@]1(C)C[C@@H](OC(=O)CSc2nc3cc[n+](Cc4ccc(C#N)cc4)cc3s2)[C@]2(C)[C@H](C)CC[C@]3(CCC(=O)[C@H]32)[C@@H](C)[C@@H]1O [Compound I-8, 5-(4-cyanobenzyl)-2-((2-(((3aR,4R,5R,7S,8S,9R,9aS,12R)-8-hydroxy-4,7,9,12-tetramethyl-3-oxo-7-vinyldecahydro-4,9a-propancyclopenta[8]cyclo-5-yl)oxy)-2-oxoethyl)thio)thiazolo[5,4-c]pyridin-5-ium]	1	2	1	0.5	1	2	1	2	> 100	16	good antibacterial activity	low toxicity		CC50 at 24 h [5]: 79.2 µM; MIC ([7]; read-out: Antibacterial activity (MIC) MRSE^e): 16 mg/L; MIC ([8]; read-out: Antibacterial activity (MIC) CR-AB^j): 64 mg/L; MIC ([10]; MRSA, read-out: Antibacterial activity (MIC) MRSA^d): 64 mg/L; MIC ([11]; read-out: Antibacterial activity (MIC) MDR-PA^h): 32 mg/L; MIC ([12]; MRSA, read-out: Antibacterial activity (MIC) MRSA^c): 32 mg/L; MIC ([13]; VRE, read-out: Antibacterial activity (MIC) VRE^g): 16 mg/L; MIC ([14]; MRSA, read-out: Antibacterial activity (MIC) MRSA^f): 8 mg/L; MIC ([15]; MRSA, read-out: Antibacterial activity (MIC) MRSA^b): 16 mg/L; CC50 (HepG2 cells [16]): 78.5 µM
C=C[C@]1(C)C[C@@H](OC(=O)CSc2nc3cc[n+](Cc4ccc(C)cc4)cc3s2)[C@]2(C)[C@H](C)CC[C@]3(CCC(=O)[C@H]32)[C@@H](C)[C@@H]1O [Compound I-9, 5-(4-methylbenzyl)-2-((2-(((3aR,4R,5R,7S,8S,9R,9aS,12R)-8-hydroxy-4,7,9,12-tetramethyl-3-oxo-7-vinyldecahydro-4,9a-propancyclopenta[8]cyclo-5-yl)oxy)-2-oxoethyl)thio)thiazolo[5,4-c]pyridin-5-ium]	0.5	0.25	0.25	0.125	0.25	0.125	0.25	0.25	> 100	2	most advantageous antibacterial activity	low toxicity	812	CC50 (HEK293 cells [19]): 82.1 µM; MIC ([7]; clinical isolate, footnote e: MRSA-222, read-out: Antibacterial activity (MIC) MRSE^e): 4 mg/L; MIC ([8]; clinical isolate CR-AB-882, read-out: Antibacterial activity (MIC) CR-AB^j): 4 mg/L; MIC ([10]; clinical isolate MRSA-206, read-out: Antibacterial activity (MIC) MRSA^d): 2 mg/L; MIC ([11]; clinical isolate MDR-PA-126, read-out: Antibacterial activity (MIC) MDR-PA^h): 8 mg/L; MIC ([12]; clinical isolate MRSA-575, read-out: Antibacterial activity (MIC) MRSA^c): 4 mg/L; MIC ([13]; clinical isolate VRE-80, read-out: Antibacterial activity (MIC) VRE^g): 8 mg/L; MIC ([14]; clinical isolate MRSA-596, read-out: Antibacterial activity (MIC) MRSA^f): 8 mg/L; MIC ([15]; clinical isolate MRSA-171, read-out: Antibacterial activity (MIC) MRSA^b): 8 mg/L; CC50 at 24 h [20]: 66.4 µM; MIC, range over five clinical MRSA isolates [21]: 2 to 8 mg/L
C=C[C@]1(C)C[C@@H](OC(=O)CSC(C)(C)CNC(=O)[C@H](N)C(C)C)[C@]2(C)[C@H](C)CC[C@]3(CCC(=O)[C@H]32)[C@@H](C)[C@@H]1O [Valnemulin, valnemulin, reference compound]	2 (≈ 3.54 µM)			4 (≈ 7.08 µM)		64 (≈ 113 µM)	16 (≈ 28.3 µM)	64 (≈ 113 µM)					386 (≈ 218 µg/mL)	CC50 (HEK293 cells [22]): 65.4 µM; CC50 (HepG2 cells [23]): 77.3 µM; CC50 (A549 cells [24]): 53.7 µM
